Test results published in article PMC8658773, “Two New Isoprenoid Flavonoids from Sophora flavescens with Antioxidant and Cytotoxic Activities” (Molecules, 2021).
Where two headings read alike, the source gives them in different places.

What was measured:
[1] = ABTS free radical scavenging assay; type: biochemical
Description: The third assay, the ABTS free radical scavenging screen was performed by previous experiments with slight changes. First, we needed to prepare for the ABTS^+ solution. […] Then, they were mixed with equal volume at room temperature and kept away from light for 12 h, the mixed solution was diluted with ethanol until the absorbance of […]. Thus, the ABTS^+ solution was obtained. Furthermore, the compounds (100 µL, 40 µg/mL) with ABTS^+ solution (100 µL) were also added to the 96-well plates (as the value of Ai) and were interacted for 10 min at room temperature in the dark, then the absorbance at 734 nm was measured. VC was used as the positive control. Antioxidant capacity was calculated according to the first formula (the value of 100 µL ethanol with 100 µL ABTS^+ solution as A0, the value of 100 µL compounds with 100 µL ethanol as Aj). All experiments were carried out in triplicate.

MCF7 cells [2] = assay: Cytotoxic activity (MTS assay), MCF7; type: cell-based, human; conditions: Homo sapiens, MCF7; 10 µM; SD in brackets; read-out: MCF-7 cell inhibitory activity (Table S6)
A549 cells = assay: Cytotoxic activity (MTS assay), A549; type: cell-based, human; conditions: Homo sapiens, A549; 10 µM; SD in brackets; read-out: A549 cell inhibitory activity (Table S5)
LO2 cells = assay: Cytotoxic activity (MTS assay), LO2 normal cells; type: cell-based, human; conditions: Homo sapiens, L02; 10 µM; SD in brackets; read-out: LO2 cell inhibitory activity (Table S7)
HepG2 cells [3] = assay: Cytotoxic activity (MTS assay), HepG2; type: cell-based, human; conditions: Homo sapiens, HepG2, 10 µM; SD in brackets; read-out: HepG2 cell inhibitory activity (Table S4)
MCF7 cells [4] = assay: Cytotoxic activity (MTS assay), MCF7; type: cell-based, human; conditions: Homo sapiens, MCF7; 10 μM, 24 h; read-out: MCF7 inhibition rate
Description: (§1) The tests were conducted according to our previous reports. The cells were grown in DMEM medium supplemented with 10% FBS, penicillin (100 U/mL), and streptomycin (100 μg/mL) in a 37 °C and 5% CO2 incubator. The cytotoxic activities were performed by the MTS assay. Briefly, 28 compounds were dissolved with DMSO. The cells were seeded at 1 × 10^5 cells/mL in 96-well plates (100 µL/well) and cultured for 18 h when the cells filled the bottom of the wells. Then the supernatant was discard, the compounds (10 μM, 100 µL/well) were added to the culture and incubated for 24 h before cell viability measurement. 10 µL MTS reagent (0.5 mg/mL) were added and further incubated for 4 h. Finally, absorbance was read using an automatic micro-plate reader (Molecular Devices, USA) at 490 nm to test the cell viabilities, and the results were presented as the percent of non-treated control for each concentration. Irinotecan was used as the positive control. All measurements were repeated in triplicate. Data were expressed as the mean ± SD.

[5] = DPPH free radical scavenging assay; type: biochemical; conditions: for DPPH radical scavenging activity (inhibition rate): 20 μg/mL, SD in brackets
Description: The in vitro antioxidant activity tests were conducted according to previous reports. Among them, the DPPH free radical scavenging assay was slightly modified. Briefly, the DPPH material was precisely weighed, ethanol solution was added to obtain a concentration of 0.1 mmol/L (to use immediately, or store in the dark). Then, the compounds (100 µL, 40 µg/mL) with DPPH solution (100 µL) (Ai) were added to 96-well plates and incubated for 30 min at room temperature. Subsequently, the activity was measured using the Thermo Scientific Varioskan LUX ([…], VL0L00D0, USA), with an absorbance of 570 nm. Vitamin C (VC) (40 µg/mL) was used as the positive control.

[6] = PTIO free radical scavenging assay; type: biochemical; conditions: for PTIO radical scavenging activity (inhibition rate): 8 μg/mL, SD in brackets
Description: PTIO free radical scavenging was also performed following previous reports with some modification. VC was used as the positive control. PTIO radicals were dissolved with phosphate buffer (PBS) (pH 7.4, 50 mM) with a concentration of 0.05 mg/mL. Then, the samples (40 µL, 40 µg/mL) and PTIO solution (160 µL) were added into 96-well plates (as the value of Ai). After being thoroughly mixed, the reaction solution was incubated at 37 °C in a water-bath for 2 h. Then, the absorbance was measured at 557 nm. PTIO free radical scavenging was calculated using the above equation. (40 µL PBS with 160 µL PTIO as A0, 40 µL compounds with 160 µL PBS as Aj).

HepG2 cells [7] = assay: Cytotoxic activity (MTS assay), HepG2; type: cell-based, human; conditions: Homo sapiens, HepG2, 24 h, 10 μM, read-out: HepG2 inhibition rate
Description: as §1

SMILES | ABTS radical scavenging IC50 [1] [µg/mL] | DPPH radical scavenging IC50 [5] [µg/mL] | PTIO radical scavenging IC50 [6] [µg/mL] | inhibition at 10 µM (MCF7 cells [2]) [%] | inhibition at 10 µM (A549 cells) [%] | inhibition at 10 µM (LO2 cells) [%] | inhibition at 10 µM (HepG2 cells [3]) [%] | inhibition at 10 µM (MCF7 cells [4]) [%] | DPPH radical scavenging activity (inhibition rate) [5] | PTIO radical scavenging activity (inhibition rate) [6] | inhibition at 10 µM (HepG2 cells [7]) [%] | ABTS radical scavenging activity (inhibition rate) ([1]; 20 μg/mL, SD in brackets)
C=C(C)C(CCC(C)(C)O)Cc1c(O)cc(OC)c2c1OC(c1ccc(O)cc1O)C(O)C2=O (centres unmarked) [Compound 4, kushenol L] | 3.72 |  |  | -0.7 | 8.2 | 3.2 | 4.6 | 0.7 | 37.1% (3.0%) | 39.4% (1.3%) | 4.6 | 
COc1cc(O)c(CC=C(C)C)c2oc(-c3ccc(O)cc3)c(O)c(=O)c12 [Compound 14, sophoflavescenol] | 2.91 | 3.52 | 5.51 | 2.8 | 6.9 | 5.5 | 11.4 |  |  | 55.0% (9.4%) |  | 
O=c1c(-c2ccc(O)cc2)coc2cc(O)cc(O)c12 [Compound 18, genistein] |  |  |  | 4.3 | 6.6 | 5 | 1 |  | 28.0% (6.2%) | 35.8% (2.0%) |  | 69.0% (1.4%)

Second part, led by results:

ABTS radical scavenging IC50 [1] [µg/mL] | DPPH radical scavenging IC50 [5] [µg/mL] | PTIO radical scavenging IC50 [6] [µg/mL] | SMILES | inhibition at 10 µM (MCF7 cells [2]) [%] | inhibition at 10 µM (A549 cells) [%] | inhibition at 10 µM (LO2 cells) [%] | inhibition at 10 µM (HepG2 cells [3]) [%] | inhibition at 10 µM (MCF7 cells [4]) [%] | DPPH radical scavenging activity (inhibition rate) [5] | PTIO radical scavenging activity (inhibition rate) [6] | inhibition at 10 µM (HepG2 cells [7]) [%] | ABTS radical scavenging activity (inhibition rate) ([1]; 20 μg/mL, SD in brackets)
1.51 | 0.90 |  | O=c1cc(-c2ccc(O)c(O)c2)oc2cc(O)cc(O)c12 [Compound 23, luteolin] | -4.7 | 41.3 | 19.8 | 1.1 |  |  | 43.3% (2.0%) |  | 
2.91 |  |  | COc1cc(O)c2c(=O)c(-c3ccc(O)c(OC)c3)coc2c1 [Compound 17, 7,3′-di-O-methyl] | 5.3 | 40.9 | 1.1 | 8.7 |  | 42.0% (1.4%) | 38.9% (2.4%) |  | 
